The values that follow are results of earlier work, collected in patent publication US20220370398A1, “METHOD TO DESTABALIZE CYSTEINE EXPOSED INFECTIOUS INFORMATION VECTORS” (priority 2021, published 2022).

The conditions of series [1]: in 40% aqueous ethanol solution.
For another series, the system named is bacterial infection. The settings on record: in vitro, as a vapor.

Regarding `C=CCS[S+]([O-])CC=C` (centres unmarked) [2PSP, 2-Propene-1-sulfinothioic acid S-2-propenyl ester], the solubility in series [1] is given as roughly 20%. Also, in the series with bacterial infection, the vapor antimicrobial effect entry is recorded as “inhibits bacterial infection”.
